Columns and labels:
[1] = Induction of singlet oxygen generation in THF assessed as singlet oxygen quantum yield by comparative photoluminescence method; format: functional
[2] = Fluorescence property of the compound in toluene assessed as fluorescence quantum yield by photoluminescence quantum yield spectrometer; format: physicochemical
[3] = Phototoxicity against human A549 cells assessed as reduction in cell viability preincubated for 24 hrs followed by 7.5 to 10 mW/cm^-2 red light irradiation and measured after 24 hrs by MTT assay; format: functional, cell-based; settings: A549, light or radiation study
[4] = Phototoxicity against human NCI-H1299 cells assessed as reduction in cell viability preincubated for 24 hrs followed by 7.5 to 10 mW/cm^-2 red light irradiation and measured after 24 hrs by MTT assay; format: functional, cell-based; settings: NCI-H1299, light or radiation study
[5] = test system: A549; experiment: Dark toxicity against human A549 cells assessed as reduction in metabolic activity at <1 uM incubated for 4 hrs by MTT assay; format: cell-based; settings: a549, 4 h
[6] = test system: NCI-H1299; experiment: Dark toxicity against human NCI-H1299 cells assessed as reduction in metabolic activity at <1 uM incubated for 4 hrs by MTT assay; format: cell-based; settings: nci-h1299, 4 h
[7] = test system: A549; experiment: Dark toxicity against human A549 cells assessed as reduction in metabolic activity at 10 uM incubated for 4 hrs by MTT assay; format: cell-based; design: scale not given: the % may be the effect or the level left; settings: a549, 4 h
[8] = test system: NCI-H1299; experiment: Dark toxicity against human NCI-H1299 cells assessed as reduction in metabolic activity at 10 uM incubated for 4 hrs by MTT assay; format: cell-based; design: scale not given: the % may be the effect or the level left; settings: nci-h1299, 4 h
[9] = Fluorescence property of the compound in THF assessed as fluorescence quantum yield by photoluminescence quantum yield spectrometer; format: physicochemical
[10] = Fluorescence property of the compound in DMSO assessed as fluorescence quantum yield by photoluminescence quantum yield spectrometer; format: physicochemical

| SMILES | Activity [1] | Activity [2] | IC50 [3] | IC50 [4] | Activity [5] | Activity [6] | Activity [7] | Activity [8] | Activity [9] | Activity [10] |
| --- | --- | --- | --- | --- | --- | --- | --- | --- | --- | --- |
| CC(C)(C)OC(=O)N/N=C(\c1ccccc1)c1c2nc(c(-c3ccc([N+](=O)[O-])cc3)c3ccc([nH]3)c3ccc([nH]3)c(-c3ccc([N+](=O)[O-])cc3)c3ccc1[nH]3)C=C2 | 0.31 | 0.197 | 2110 nM | 2360 nM | Non-toxic | Non-toxic | 48.37% | 51.15% |  |  |
| C/C(=N/NC(=O)OC(C)(C)C)c1c2nc(c(-c3ccc(O)cc3)c3ccc([nH]3)c3ccc([nH]3)c(-c3ccc(O)cc3)c3ccc1[nH]3)C=C2 | 0.18 |  | 413 nM | 145 nM | Non-toxic | Non-toxic |  |  | 0.114 | 0.249 |
| CC(C)(C)OC(=O)N/N=C(\c1ccccc1)c1c2nc(c(-c3ccccc3)c3ccc([nH]3)c3ccc([nH]3)c(-c3ccccc3)c3ccc1[nH]3)C=C2 | 0.46 |  | 948 nM | 538 nM | Non-toxic | Non-toxic |  | Non-toxic | 0.159 | 0.298 |
| C/C(=N/NC(=O)OC(C)(C)C)c1c2nc(c(-c3cccc(O)c3)c3ccc([nH]3)c3ccc([nH]3)c(-c3cccc(O)c3)c3ccc1[nH]3)C=C2 | 0.26 |  | 140 nM | 67.5 nM | Non-toxic | Non-toxic |  |  | 0.133 | 0.283 |
| CC(C)(C)OC(=O)N/N=C(/c1ccccc1)c1c2nc(c(-c3ccc(O)cc3)c3ccc([nH]3)c3ccc([nH]3)c(-c3ccc(O)cc3)c3ccc1[nH]3)C=C2 | 0.21 |  | 89.3 nM | 56.1 nM | Non-toxic | Non-toxic |  |  | 0.118 | 0.234 |
| C/C(=N/NC(=O)OC(C)(C)C)c1c2nc(c(-c3ccc([N+](=O)[O-])cc3)c3ccc([nH]3)c3ccc([nH]3)c(-c3ccc([N+](=O)[O-])cc3)c3ccc1[nH]3)C=C2 | 0.22 | 0.195 | 748 nM | 310 nM | Non-toxic | Non-toxic | 49.14% | 53.41% |  |  |

Source: ChEMBL document CHEMBL6087389, “Hydrazone-Functionalized trans-A2B-Corroles: Effective Synergy in Photodynamic Therapy of Lung Cancer” (J Med Chem, 2024)
